What was measured:
[1] = in vitro; format: in vitro ADME; settings: pH 7.4, 10 µM, 16 h at 30 °C
[2] = test system: Karpas 422; assay: Cell proliferation assay (14 days), Karpas 422
Experimental: Cells were seeded in 96-well culture plates at a density of 2500 cells/well in RPMI-1640 medium (Sigma-
Aldrich) supplemented with 10% FBS (Gibco). Compounds were initially dispensed into 96-well U-bottom
plates using an Echo 550 acoustic dispenser (Labcyte Inc.), then diluted in RPMI-1640 medium and
transferred onto the cells. Cells were treated with 8 compound concentrations in duplicate, ranging from
with compound for 14 days, with medium changes at days 3, 7 and 10 carried out as follows: fresh 96-well
cell culture plates were prepared containing 100 µl medium plus compound at the assay concentrations
(white plates were used on day 10 to optimise luminescence measurement). Assay plates containing cells
were vortexed to mix and cell density in one control well was counted using a Coulter Z2 cell counter
(Beckman Coulter). The volume of medium containing 2500 cells in the control well was calculated and this volume of cells was transferred from every well of the assay plates to the corresponding well of the fresh plates containing compound. After 14 days, CellTiter Glo reagent (Promega) was added to the medium in each well of the assay plate at a ratio of 1:2, mixed on a plate shaker, then incubated at room temperature for 10 minutes. Luminescence was measured using an Envision plate reader (Perkin Elmer) and the relative luminescence at each compound concentration, compared to DMSO alone, was calculated. GI50 were determined using a 4-parameter curve fit in Dotmatics (Bishops Stortford, UK).

[3] = molecular target: T1, CCKAR (Homo sapiens, UniProt P32238); assay: SAFETYScan GPCR Calcium Flux, Agonist; format: cell-based
T1 sequence (P32238 1-428): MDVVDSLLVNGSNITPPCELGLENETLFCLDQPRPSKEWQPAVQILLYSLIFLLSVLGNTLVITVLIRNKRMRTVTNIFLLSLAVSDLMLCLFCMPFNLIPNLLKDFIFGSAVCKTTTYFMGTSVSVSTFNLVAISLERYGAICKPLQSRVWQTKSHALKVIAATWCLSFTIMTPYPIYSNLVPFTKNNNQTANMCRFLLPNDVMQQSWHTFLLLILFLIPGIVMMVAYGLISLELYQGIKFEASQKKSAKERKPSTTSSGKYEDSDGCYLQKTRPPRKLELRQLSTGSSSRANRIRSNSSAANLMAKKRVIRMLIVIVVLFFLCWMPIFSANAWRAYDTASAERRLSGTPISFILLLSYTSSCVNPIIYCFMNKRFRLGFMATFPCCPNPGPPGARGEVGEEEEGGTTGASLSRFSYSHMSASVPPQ
From the text: (§1) Supplement jm1c02175_si_002.xlsx, sheet "SAFETYScan" | column: RC50 (uM); Max Response

[4] = molecular target: T2, HTR2A (Homo sapiens, UniProt P28223); assay: SAFETYScan GPCR Calcium Flux, Agonist; format: cell-based
From the text: as §1

[5] = molecular target: T3, CHRM1 (Homo sapiens, UniProt P11229); assay: SAFETYScan GPCR Calcium Flux, Agonist; format: cell-based
T3 sequence (P11229 1-460): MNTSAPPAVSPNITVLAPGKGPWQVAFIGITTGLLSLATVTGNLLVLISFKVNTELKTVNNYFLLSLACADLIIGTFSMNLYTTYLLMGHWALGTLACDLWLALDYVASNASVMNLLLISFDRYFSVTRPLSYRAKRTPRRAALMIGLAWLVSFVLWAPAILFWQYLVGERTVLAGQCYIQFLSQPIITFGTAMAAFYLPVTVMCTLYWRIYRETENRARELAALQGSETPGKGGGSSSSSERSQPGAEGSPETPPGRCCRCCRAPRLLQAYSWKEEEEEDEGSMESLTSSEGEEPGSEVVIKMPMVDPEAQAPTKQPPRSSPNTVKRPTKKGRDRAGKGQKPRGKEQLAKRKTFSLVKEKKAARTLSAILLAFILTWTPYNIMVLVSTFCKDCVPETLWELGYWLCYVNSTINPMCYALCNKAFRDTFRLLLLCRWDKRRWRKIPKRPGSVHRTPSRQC
From the text: as §1

[6] = molecular target: T4, ADRA1A (Homo sapiens, UniProt P35348); assay: SAFETYScan GPCR Calcium Flux, Agonist; format: cell-based
T4 sequence (P35348 1-466): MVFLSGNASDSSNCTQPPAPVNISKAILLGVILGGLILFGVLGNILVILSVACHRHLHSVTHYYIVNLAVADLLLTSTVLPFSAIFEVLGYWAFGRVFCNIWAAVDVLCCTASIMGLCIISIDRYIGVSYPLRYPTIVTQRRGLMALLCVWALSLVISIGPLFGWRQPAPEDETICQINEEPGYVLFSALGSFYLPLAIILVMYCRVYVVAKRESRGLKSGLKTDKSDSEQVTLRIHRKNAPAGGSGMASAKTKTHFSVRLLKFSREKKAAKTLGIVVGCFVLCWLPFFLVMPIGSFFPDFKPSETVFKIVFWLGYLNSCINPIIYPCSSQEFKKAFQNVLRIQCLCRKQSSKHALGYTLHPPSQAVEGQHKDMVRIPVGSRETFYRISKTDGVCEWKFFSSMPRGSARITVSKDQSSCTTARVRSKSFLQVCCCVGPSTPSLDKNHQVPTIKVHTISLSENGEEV
From the text: as §1

[7] = molecular target: T5, HRH1 (Homo sapiens, UniProt P35367); assay: SAFETYScan GPCR Calcium Flux, Agonist; format: cell-based
From the text: as §1

[8] = molecular target: T6, HTR2B (Homo sapiens, UniProt P41595); assay: SAFETYScan GPCR Calcium Flux, Agonist; format: cell-based
T6 construct: expressed in transfected cells
From the text: as §1

[9] = molecular target: ADORA2A (Homo sapiens, UniProt P29274); assay: SAFETYScan GPCR Calcium Flux, Agonist; format: cell-based
From the text: as §1

[10] = molecular target: T7, CHRM3 (Homo sapiens, UniProt P20309); assay: SAFETYScan GPCR Calcium Flux, Agonist; format: cell-based
From the text: as §1

[11] = molecular target: T8, AVPR1A (Homo sapiens, UniProt P37288); assay: SAFETYScan GPCR Calcium Flux, Agonist; format: cell-based
From the text: as §1

[12] = molecular target: T1, CCKAR; assay: SAFETYScan GPCR Calcium Flux, Antagonist; format: cell-based
From the text: as §1

[13] = molecular target: T2, HTR2A; assay: SAFETYScan GPCR Calcium Flux, Antagonist; format: cell-based
From the text: as §1

[14] = molecular target: T3, CHRM1; assay: SAFETYScan GPCR Calcium Flux, Antagonist; format: cell-based
From the text: as §1

[15] = molecular target: T4, ADRA1A; assay: SAFETYScan GPCR Calcium Flux, Antagonist; format: cell-based
From the text: as §1

[16] = molecular target: T5, HRH1; assay: SAFETYScan GPCR Calcium Flux, Antagonist; format: cell-based
From the text: as §1

[17] = molecular target: T6, HTR2B; assay: SAFETYScan GPCR Calcium Flux, Antagonist; format: cell-based
From the text: as §1

[18] = molecular target: T7, CHRM3; assay: SAFETYScan GPCR Calcium Flux, Antagonist; format: cell-based
From the text: as §1

[19] = molecular target: T8, AVPR1A; assay: SAFETYScan GPCR Calcium Flux, Antagonist; format: cell-based
From the text: as §1

T8 sequence (P37288 whole entry): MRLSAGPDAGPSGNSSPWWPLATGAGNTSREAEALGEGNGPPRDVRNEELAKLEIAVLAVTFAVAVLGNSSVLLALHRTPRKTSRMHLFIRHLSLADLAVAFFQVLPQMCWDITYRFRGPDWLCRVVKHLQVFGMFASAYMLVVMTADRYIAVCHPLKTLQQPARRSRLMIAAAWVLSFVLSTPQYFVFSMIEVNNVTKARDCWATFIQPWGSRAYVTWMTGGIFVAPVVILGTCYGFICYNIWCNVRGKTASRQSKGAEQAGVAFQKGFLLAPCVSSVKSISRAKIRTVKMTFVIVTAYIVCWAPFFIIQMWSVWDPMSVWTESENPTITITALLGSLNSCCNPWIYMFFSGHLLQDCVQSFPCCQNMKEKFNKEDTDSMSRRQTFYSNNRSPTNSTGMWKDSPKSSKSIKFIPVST
T7 sequence (P20309 whole entry): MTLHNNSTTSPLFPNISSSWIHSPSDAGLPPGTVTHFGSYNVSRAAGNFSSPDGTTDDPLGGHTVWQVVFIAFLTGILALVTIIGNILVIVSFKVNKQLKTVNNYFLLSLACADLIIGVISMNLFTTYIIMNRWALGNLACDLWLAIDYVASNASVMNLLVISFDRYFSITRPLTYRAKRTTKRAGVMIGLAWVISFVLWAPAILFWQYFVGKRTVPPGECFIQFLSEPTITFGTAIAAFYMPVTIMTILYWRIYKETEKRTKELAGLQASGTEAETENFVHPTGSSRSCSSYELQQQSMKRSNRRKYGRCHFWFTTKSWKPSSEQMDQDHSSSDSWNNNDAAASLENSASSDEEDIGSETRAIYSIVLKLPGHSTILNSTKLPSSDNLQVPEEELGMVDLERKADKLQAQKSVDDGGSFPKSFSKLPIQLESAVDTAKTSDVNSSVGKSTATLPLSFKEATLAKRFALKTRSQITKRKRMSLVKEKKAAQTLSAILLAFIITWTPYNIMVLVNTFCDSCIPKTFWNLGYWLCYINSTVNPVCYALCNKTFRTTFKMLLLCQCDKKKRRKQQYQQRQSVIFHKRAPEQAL
T2 sequence (P28223 whole entry): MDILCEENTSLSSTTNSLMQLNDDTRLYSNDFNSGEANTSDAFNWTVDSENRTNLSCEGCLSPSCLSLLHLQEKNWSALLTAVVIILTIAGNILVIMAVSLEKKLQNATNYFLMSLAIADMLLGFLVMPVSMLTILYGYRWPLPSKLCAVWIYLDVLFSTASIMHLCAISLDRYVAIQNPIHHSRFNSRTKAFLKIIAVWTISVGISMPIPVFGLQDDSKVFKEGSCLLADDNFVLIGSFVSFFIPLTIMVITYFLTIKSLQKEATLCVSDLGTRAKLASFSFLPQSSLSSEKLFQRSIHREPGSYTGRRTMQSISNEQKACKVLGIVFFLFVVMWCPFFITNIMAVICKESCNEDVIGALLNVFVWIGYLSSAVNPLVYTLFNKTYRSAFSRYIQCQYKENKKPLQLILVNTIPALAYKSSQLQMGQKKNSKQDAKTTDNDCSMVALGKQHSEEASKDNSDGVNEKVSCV
T5 sequence (P35367 whole entry): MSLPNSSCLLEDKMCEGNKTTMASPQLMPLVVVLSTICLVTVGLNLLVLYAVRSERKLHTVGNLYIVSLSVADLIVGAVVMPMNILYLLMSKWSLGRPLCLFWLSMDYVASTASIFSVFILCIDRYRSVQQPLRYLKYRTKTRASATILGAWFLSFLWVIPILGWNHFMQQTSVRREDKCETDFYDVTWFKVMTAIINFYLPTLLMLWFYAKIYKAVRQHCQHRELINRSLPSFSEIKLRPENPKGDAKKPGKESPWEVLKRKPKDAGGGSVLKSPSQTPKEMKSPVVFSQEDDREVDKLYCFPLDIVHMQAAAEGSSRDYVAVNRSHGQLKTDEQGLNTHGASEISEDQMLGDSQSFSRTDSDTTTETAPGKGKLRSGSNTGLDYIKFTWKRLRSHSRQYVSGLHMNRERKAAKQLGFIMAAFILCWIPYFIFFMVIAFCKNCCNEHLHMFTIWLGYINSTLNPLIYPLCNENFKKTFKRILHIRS
T6 sequence (P41595 whole entry): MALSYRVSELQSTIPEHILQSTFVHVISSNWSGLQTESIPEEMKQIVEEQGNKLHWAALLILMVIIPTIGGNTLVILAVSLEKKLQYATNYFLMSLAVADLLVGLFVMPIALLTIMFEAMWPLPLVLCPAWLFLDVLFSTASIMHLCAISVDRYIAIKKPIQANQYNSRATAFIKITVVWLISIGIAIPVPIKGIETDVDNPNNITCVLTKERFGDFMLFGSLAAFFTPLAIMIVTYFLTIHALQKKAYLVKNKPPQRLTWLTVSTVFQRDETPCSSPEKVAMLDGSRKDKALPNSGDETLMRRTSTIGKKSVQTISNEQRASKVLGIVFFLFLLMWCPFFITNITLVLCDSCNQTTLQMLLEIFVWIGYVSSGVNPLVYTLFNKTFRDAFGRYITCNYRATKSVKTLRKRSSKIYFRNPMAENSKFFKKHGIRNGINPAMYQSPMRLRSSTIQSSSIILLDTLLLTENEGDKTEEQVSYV
ADORA2A, sequence (P29274 whole entry): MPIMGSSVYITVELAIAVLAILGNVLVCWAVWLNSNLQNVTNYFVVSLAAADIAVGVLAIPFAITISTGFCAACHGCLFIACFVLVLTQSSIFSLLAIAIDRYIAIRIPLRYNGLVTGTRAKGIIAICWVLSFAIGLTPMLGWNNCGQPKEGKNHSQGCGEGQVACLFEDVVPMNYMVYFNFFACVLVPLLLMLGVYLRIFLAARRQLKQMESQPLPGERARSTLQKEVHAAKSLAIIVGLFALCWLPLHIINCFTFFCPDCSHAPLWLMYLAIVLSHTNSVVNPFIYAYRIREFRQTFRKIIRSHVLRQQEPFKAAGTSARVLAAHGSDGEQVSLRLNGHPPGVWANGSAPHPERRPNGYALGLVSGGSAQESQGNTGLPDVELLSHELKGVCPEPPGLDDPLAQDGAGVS

**Q.** With `C[C@H]1C[C@@H](O)CN(c2ncc(Cl)c(Nc3ccc4c(c3)c3c(c(=O)n4C)OCC(F)(F)[C@H](C4CC4)N3)n2)C1` [12a CCT373566, (S)-10-((5-Chloro-2-((3R,5S)-3-hydroxy-5-methylpiperidin-1-yl)pyrimidin-4-yl)amino)-2-cyclopropyl-3,3-difluoro-7-methyl-1,2,3,4-tetrahydro-[1,4]oxazepino[2,3-c]quinolin-6(7H)-one] as the compound, how does the “PAMPA (pH 7.4)” value [1] read?
**A.** 24 ×10–6 cm s–1

**Q.** And the “Karpas 422 GI50” value ([2]; 14-day proliferation assay)?
**A.** Very potent growth inhibition

**Q.** What about the GI50 ([2]; Homo sapiens, KARPAS-422, 336 h, read-out: Karpas 422 GI50) of the same compound?
**A.** 0.0014 µM

**Q.** What about the Emax ([3]; read-out: Max Response) of the same compound?
**A.** 2.17%

**Q.** And the EC50 ([3]; read-out: RC50 (EC50))?
**A.** > 10 µM

**Q.** And the Emax ([4]; read-out: Max Response)?
**A.** 0%

**Q.** What about the EC50 ([4]; read-out: RC50 (EC50)) of the same compound?
**A.** > 10 µM

**Q.** What about the Emax ([5]; read-out: Max Response) of the same compound?
**A.** 3.12%

**Q.** And the EC50 ([5]; read-out: RC50 (EC50))?
**A.** > 10 µM

**Q.** And the Emax ([6]; read-out: Max Response)?
**A.** 5.05%

**Q.** What about the EC50 ([6]; read-out: RC50 (EC50)) of the same compound?
**A.** > 10 µM

**Q.** And the Emax ([7]; read-out: Max Response)?
**A.** 1.78%

**Q.** What about the EC50 ([7]; read-out: RC50 (EC50)) of the same compound?
**A.** > 10 µM

**Q.** And the Emax ([8]; read-out: Max Response)?
**A.** 1.98%

**Q.** And the EC50 ([8]; read-out: RC50 (EC50))?
**A.** > 10 µM

**Q.** What about the Emax ([9]; read-out: Max Response) of the same compound?
**A.** 0%

**Q.** What about the EC50 ([9]; read-out: RC50 (EC50)) of the same compound?
**A.** > 10 µM

**Q.** And the Emax ([10]; read-out: Max Response)?
**A.** 3.17%

**Q.** And the EC50 ([10]; read-out: RC50 (EC50))?
**A.** > 10 µM

**Q.** What about the Emax ([11]; read-out: Max Response) of the same compound?
**A.** 4.09%

**Q.** What about the EC50 ([11]; read-out: RC50 (EC50)) of the same compound?
**A.** > 10 µM

**Q.** And the Emax ([12]; read-out: Max Response)?
**A.** 0%

**Q.** What about the IC50 ([12]; read-out: RC50 (IC50)) of the same compound?
**A.** > 10 µM

**Q.** And the Emax ([13]; read-out: Max Response)?
**A.** 1.76%

**Q.** What about the IC50 ([13]; read-out: RC50 (IC50)) of the same compound?
**A.** > 10 µM

**Q.** What about the Emax ([14]; read-out: Max Response) of the same compound?
**A.** 3.44%

**Q.** What about the IC50 ([14]; read-out: RC50 (IC50)) of the same compound?
**A.** > 10 µM

**Q.** And the Emax ([15]; read-out: Max Response)?
**A.** 0%

**Q.** What about the IC50 ([15]; read-out: RC50 (IC50)) of the same compound?
**A.** > 10 µM

**Q.** And the Emax ([16]; read-out: Max Response)?
**A.** 0%

**Q.** What about the IC50 ([16]; read-out: RC50 (IC50)) of the same compound?
**A.** > 10 µM

**Q.** What about the Emax ([17]; read-out: Max Response) of the same compound?
**A.** 24.2%

**Q.** And the IC50 ([17]; read-out: RC50 (IC50))?
**A.** > 10 µM

**Q.** What about the Emax ([18]; read-out: Max Response) of the same compound?
**A.** 0%

**Q.** And the IC50 ([18]; read-out: RC50 (IC50))?
**A.** > 10 µM

**Q.** And the Emax ([19]; read-out: Max Response)?
**A.** 0%

**Q.** What about the IC50 ([19]; read-out: RC50 (IC50)) of the same compound?
**A.** > 10 µM
